Results from PubChem BioAssay AID1850 (Southern Research Specialized Biocontainment Screening …, 2009).

test system: Salmonella Typhi PhoP-promoter GFP reporter, fluorescence, 4 h; assay: PhoP regulon inhibitors, Salmonella typhi PhoP promoter GFP reporter, confirmatory (AID 1850)

Compound	IC50 [µM]
CCCCCCCCCCOC(=O)Cn1c(COc2ccc(Cl)cc2)[n+](C)c2ccccc21	10.3
CCCCCC(=O)NC(=S)NNC(=O)CC	133
C#CCOCCOCCOCCNc1nc(N2CCN(C(=O)CCCCCCCCCCNC(=O)[C@H]([C@@H](C)CC)n3cc(CCCCCN)nn3)CC2)nc(N2CCN(C(=O)CCCCCCCCCCNC(=O)[C@H]([C@@H](C)CC)n3cc(CCCCN=C(N)N)nn3)CC2)n1	20.1
c1ccc(CN2CCN(c3ncnc4c3[nH]c3ccccc34)CC2)cc1	37.8
Cc1nc2c(=O)n(C)c(=O)nc-2n(C)n1	1.29
COc1c(N2CCNC(C)C2)c(F)cc2c(=O)c(C(=O)O)cn(C3CC3)c12 (centres undefined)	0.29
COC(=O)c1sccc1NC(=S)NCc1ccc(Cl)cc1	36.9
OCCN1CCN(C2CCC(c3ccc(F)cc3)c3ccc(F)cc32)CC1 (centres undefined)	36.6
Oc1ccc(C[C@H]2CNCCN2CCCCC2CCCCC2)cc1	64.5
CCN(CCNCC(O)COc1ccccc1C(C)C)c1cccc(C)c1 (centres undefined)	32.5
O=C(CC(=O)c1cc(Cl)ccc1O)c1ccccc1	19.8
Fc1ccccc1CCNCc1ccccc1	34.1
COc1ccc(Nc2nc(NCC3CCCO3)c3ccccc3n2)c(OC)c1 (centres undefined)	37
CN(C)CCCNC(=S)NCC(c1ccc(Cl)cc1Cl)c1c[nH]c2ccccc12 (centres undefined)	52.5
O=C(N/N=C/c1cc(Cl)ccc1O)c1cccnc1	37.6
CN1CCN(c2cc3c(cc2F)c(=O)c(C(=O)O)cn3CCF)CC1	0.31
O=C(/C=C(\O)c1ccccc1)C(=O)NNC(=O)c1ccccc1	23.8
OC(c1cc(C(F)(F)F)nc2c(C(F)(F)F)cccc12)C1CCCCN1 (centres undefined)	20.3
CCCCCCCCCCOC(=O)Cn1c(COc2cccc(C)c2)[n+](C)c2ccccc21	12.4
CC(C)[C@@H]1CC[C@@H](C)C[C@H]1OC(=O)C[n+]1cc(-c2ccc(Cl)cc2)n2c1CCCCC2	67.2
OCCCNc1c2ccccc2nc2ccccc12	105

Compound	IC50 [µM]
O=[N+]([O-])c1cc(F)c2cccnc2c1O	6.57
COc1ccc(C(=O)NC(=S)NNC(=O)c2cccc(C)c2)cc1	61.4
C/C(=N/Nc1ccnc2cc(Cl)ccc12)c1ccc(N)cc1	30
Fc1ccc(Nc2ccnc(Nc3ccc(F)cc3)n2)cc1	20
Oc1cccc(C=NCc2ccccc2)c1O	51.3
CNCC[C@H](Oc1cccc2ccccc12)c1cccs1	82
O=Nc1c(O)c2ccccc2c2ccccc12	19.7
CCn1cc(C(=O)NCC(C)C)c(=O)c2cc(F)c(N3CCN(C)CC3)cc21	14.9
O=C(Nc1cccc(C2=NCCN2)c1)Nc1cccc(C2=NCCN2)c1	71.9
CCCCCCCCCCn1c2c(c(=N)c3c1CCC3)CCC2	14.7
Fc1ccc(CCNCc2ccc(Cl)c(Cl)c2)cc1	36.9
Cc1nnc(N/N=C/c2ccccn2)[nH]c1=O	32.8
COc1ccc(S(=O)(=O)N2CN3CCN(C3)C2)cc1	144
O=C(Cc1cccs1)N/N=C\c1ccc([N+](=O)[O-])s1	35
Cc1ccc(S(=O)(=O)NNc2ccccc2)c(C)c1	38.3
CN(O)/C=c1/ccc2c(n1)C(=O)C=CC=2	34.8
O=C(c1cccs1)c1no[n+]([O-])c1C(=O)c1cccs1	28.4
C[C@H]1c2cccc(O)c2C(O)=C2C(=O)[C@]3(O)C(O)=C(C(N)=O)C(=O)[C@@H](N(C)C)C3[C@@H](O)C21 (some centres undefined)	1.91
CN(C)CCCNC(=O)c1ccc(-c2nc(-c3ccc(Cl)cc3)cs2)cc1	20.8
O=[N+]([O-])c1cc(Cl)cc(/C=N/NC(=S)Nc2ccc(S(=O)(=O)N3CCOCC3)cc2)c1O	80.3
CSc1ccc2c(c1)C(N1CCN(C)CC1)Cc1ccc(F)cc1S2 (centres undefined)	36.8

Compound	IC50 [µM]
CC(=O)c1cc(O)c2ccccc2c1O	111
CCCCCCCCCCCCCCCCn1cc[n+](C)c1	31.2
Cc1cccc(OCC(O)Cn2c(=N)n(CCN3CCCCC3)c3ccccc32)c1 (centres undefined)	78.3
O=C(Nc1ccc(Cl)cc1)Nc1ccc2c(c1)N1CCN=C1S2	68.5
COc1cccc(-c2nnc(NC(=O)c3ccc(Cl)s3)o2)c1	101
O=C(N/N=C/c1ccc([N+](=O)[O-])o1)C1CCCC1	35.5
Nc1ncncc1-c1ccc([N+](=O)[O-])cc1	80.1
Cc1occc1C(=O)N/N=C/c1cccs1	69.7
O=[N+]([O-])c1ccc(O)c(/C=N/Nc2ccccn2)c1	13.2
O=C(Nc1nc(-c2ccccn2)cs1)c1ccc(Br)s1	23.9
O=C(O)c1sccc1Oc1ccc(F)cc1[N+](=O)[O-]	88.7
O=C(Nc1nnc(-c2cccs2)o1)c1cccc(Oc2ccccc2)c1	61.1
Clc1ccc(C(c2ccc(Cl)cc2)n2cc[n+](CC(OCc3ccc(Cl)cc3Cl)c3ccc(Cl)cc3Cl)c2)cc1 (centres undefined)	10.5
O=C(NC(=S)NNC(=O)c1cnccn1)c1ccc(F)cc1	36.1
Cc1nc(N)c(Cc2ccc(Cl)cc2Cl)c(N)n1	44.2
Cc1ccc(S(=O)(=O)CCC(=O)c2ccc(O)cc2O)cc1	75.7
COc1cc(/C=C/[N+](=O)[O-])ccc1O	102
CCn1cc(C(=O)O)c(=O)c2cc(F)c(N3CCN(S(=O)(=O)c4ccc(NC(C)=O)cc4)CC3)cc21	103
O=C(N/N=C/c1cc(Cl)cc([N+](=O)[O-])c1O)C1CC1	106
CC(C(=O)NC1C=CS(=O)(=O)C1)N1C(=O)/C(=C/c2ccc(Cl)cc2)SC1=S (centres undefined)	32
Cc1cc(C)n(/N=C/c2cc([N+](=O)[O-])ccc2O)c(=O)c1	92

Compound	IC50 [µM]
Oc1c(C(Nc2ccccn2)c2cccnc2)cc(Cl)c2cccnc12 (centres undefined)	36.5
N=c1n(CCN2CCCCC2)c2ccccc2n1CC(=O)c1ccc(Cl)c(Cl)c1	34.9
CCc1cccc2c1Sc1ccccc1CC2N1CCNCC1 (centres undefined)	50.8
O=C(Nc1c2ccccc2nc2ccccc12)C(Cl)(Cl)Cl	63.5
CC(NCC(O)COc1ccc2ccccc2c1)c1ccccc1 (centres undefined)	79.8
CCN1CCN(C(=O)c2cc3cc(Cl)ccc3[nH]2)CC1	89.5
N=c1c2c(n(Cc3cccc(Cl)c3)c3c1CCC3)CCCC2	64.2
CCC(=O)N1CCN(c2cc3c(cc2F)c(=O)c(C(=O)O)cn3CC)CC1	52.3
COc1c(N2CCN(C(=S)Nc3ccccc3F)C(C)C2)c(F)cc2c(=O)c(C(=O)O)cn(C3CC3)c12 (centres undefined)	1.63
CN(C)CCCN1c2ccccc2CCc2ccc(Cl)cc21	102
Cc1[nH]c2ccc(OC(F)(F)F)cc2c1CCNCc1ccc(Cl)cc1	22.1
NC1=NC[C@H](Cc2ccc(O)cc2)N1CCc1cccc2ccccc12	50.2
O=C(C[n+]1cc(Br)cc2ccccc21)c1ccc(Cl)cc1	76.1
Clc1ccc(-c2cc(C3CCNCC3)[nH]n2)c(Cl)c1	55
COc1cc([N+](=O)[O-])cc(/C=N/NC(=O)c2cccnc2)c1O	82.4
CCCCCCCCNC(C)C(O)c1ccc(SC(C)C)cc1 (centres undefined)	25.2
CN1CCc2c(sc(NC(=O)c3ccc([N+](=O)[O-])o3)c2C(N)=O)C1	18.7
NC1=NC[C@H](c2ccccc2)N1CCc1cc(C(F)(F)F)cc(C(F)(F)F)c1	75
COc1ccc(C(=O)NNC(=S)NC(=O)c2ccccc2)cc1	99.7
O=c1[nH][nH]c(-c2ccccc2O)c1C(C[N+](=O)[O-])c1ccc(Br)cc1 (centres undefined)	91.5
O=C(N/N=C/c1ccc([N+](=O)[O-])s1)c1cccnc1	24
